Reference: paper PMC12724200 (mSphere, 2025)
pIC50: −log10 of the molar value. ≈ marks a conversion by molar mass, not a printed value. Like-named read-outs stand apart in the source and are kept apart here.

Legend:
M. bovis = assay: microbe, parasite or virus in culture; format: cell-based, Mycobacterium bovis
MRC-5 = settings: human
THP-1 = settings: human
Staphylococcus aureus = assay: microbe, parasite or virus in culture; format: cell-based
A549 = settings: human
M. tuberculosis H37Rv = assay: microbe, parasite or virus in culture; format: cell-based, Mycobacterium tuberculosis
OCT313-resistant BCG = assay: microbe, parasite or virus in culture; format: cell-based, Mycobacterium bovis BCG
M. avium 104 = assay: microbe, parasite or virus in culture; format: cell-based, Mycobacterium avium
M. bovis BCG Tokyo 172 [1] = assay: microbe, parasite or virus in culture; format: cell-based, Mycobacterium bovis BCG
M. smegmatis mc^2 155 = assay: microbe, parasite or virus in culture; format: cell-based, Mycobacterium smegmatis
Escherichia coli DH5α = assay: microbe, parasite or virus in culture; format: cell-based
M. bovis BCG Tokyo 172 [2] = format: cell-based, Mycobacterium bovis BCG
[3] = biological target: recombinant wild-type M. bovis BCG PTA (Mycobacterium bovis, UniProt A0A679LAX5); assay: biochemical; format: biochemical
recombinant wild-type M. bovis BCG PTA, sequence (A0A679LAX5 1-690): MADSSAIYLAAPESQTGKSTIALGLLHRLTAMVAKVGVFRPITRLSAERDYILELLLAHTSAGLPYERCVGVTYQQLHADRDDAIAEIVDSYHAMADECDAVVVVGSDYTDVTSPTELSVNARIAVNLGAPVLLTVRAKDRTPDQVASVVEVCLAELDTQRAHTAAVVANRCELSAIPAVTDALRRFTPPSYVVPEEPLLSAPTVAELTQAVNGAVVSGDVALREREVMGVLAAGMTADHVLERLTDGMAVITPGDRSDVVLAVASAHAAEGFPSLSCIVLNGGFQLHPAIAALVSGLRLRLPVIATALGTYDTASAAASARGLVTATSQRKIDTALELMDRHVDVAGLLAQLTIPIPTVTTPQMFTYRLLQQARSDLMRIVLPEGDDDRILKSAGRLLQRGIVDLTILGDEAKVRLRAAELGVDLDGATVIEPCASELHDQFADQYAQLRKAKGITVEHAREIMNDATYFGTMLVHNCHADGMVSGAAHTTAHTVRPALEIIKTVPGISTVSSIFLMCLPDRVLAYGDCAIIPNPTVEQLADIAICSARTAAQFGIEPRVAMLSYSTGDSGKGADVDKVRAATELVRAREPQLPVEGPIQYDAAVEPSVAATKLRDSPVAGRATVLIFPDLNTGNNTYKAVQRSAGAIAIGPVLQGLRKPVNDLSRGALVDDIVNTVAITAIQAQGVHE

[4] = test system: OCT313-resistant BCG strains OCTR_3 and OCTR_4; format: cell-based, Mycobacterium bovis BCG
L. mesenteroides PTA = L. mesenteroides PTA (Leuconostoc mesenteroides, UniProt Q03W64); format: biochemical
L. mesenteroides PTA, sequence (Q03W64 1-326): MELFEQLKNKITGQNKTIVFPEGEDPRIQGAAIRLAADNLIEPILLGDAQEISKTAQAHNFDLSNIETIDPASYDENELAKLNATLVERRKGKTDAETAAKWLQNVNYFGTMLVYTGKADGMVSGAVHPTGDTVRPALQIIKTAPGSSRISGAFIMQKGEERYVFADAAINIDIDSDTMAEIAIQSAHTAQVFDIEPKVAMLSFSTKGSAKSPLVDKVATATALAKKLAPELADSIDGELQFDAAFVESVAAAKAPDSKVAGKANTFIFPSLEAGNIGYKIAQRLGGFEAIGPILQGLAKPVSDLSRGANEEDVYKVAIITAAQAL

[5] = Mycobacterium tuberculosis variant bovis, 336 h
[6] = Mycobacterium tuberculosis, H37RV
[7] = Mycobacterium tuberculosis, H37RV, 336 h
[8] = Mycobacterium tuberculosis variant bovis BCG, BCG, 336 h
[9] = Mycobacterium avium, 104, 168 h
[10] = Mycolicibacterium smegmatis, MC^2155, 72 h

Compound	MIC (M. bovis; [5])	85% survival conc. (MRC-5)	LC50/MIC (MRC-5)	85% survival conc. (THP-1)	LC50/MIC (THP-1)	MIC (Staphylococcus aureus; Staphylococcus aureus)	85% survival conc. (A549)	LC50/MIC (A549)	MIC (M. tuberculosis H37Rv; [6])	MIC (M. tuberculosis H37Rv; [7])	MIC (OCT313-resistant BCG; [8])	MIC (M. avium 104; [9])	MIC (M. bovis BCG Tokyo 172 [1]; [8])	MIC (M. smegmatis mc^2 155; [10])	MIC (Escherichia coli DH5α; Escherichia coli)	Antibacterial activity in Wayne dormancy model (M. bovis BCG Tokyo 172 [2])	further results
CO[C@H]1/C=C/O[C@@]2(C)Oc3c(C)c(O)c4c(O)c(c(/C=N/N5CCN(C)CC5)c(O)c4c3C2=O)NC(=O)/C(C)=C\C=C\[C@H](C)[C@H](O)[C@@H](C)[C@@H](O)[C@@H](C)[C@H](OC(C)=O)[C@@H]1C [RFP, rifampicin]	0.016 µg/mL (≈ 0.0194 µM)	10 µg/mL	16,250	10 µg/mL	16,256	0.02 µg/mL (≈ 0.0243 µM)	10 µg/mL	44,510	0.004 µg/mL (≈ 0.00486 µM)	0.004 µg/mL (≈ 0.00486 µM)	0.01 µg/mL (≈ 0.0122 µM)	0.25 µg/mL (≈ 0.304 µM)	0.01 µg/mL (≈ 0.0122 µM)	1.56 µg/mL (≈ 1.9 µM)	12.5 µg/mL (≈ 15.2 µM)	–	–
NNC(=O)c1ccncc1 [INH, isoniazid]	0.04 µg/mL (≈ 0.292 µM)	250 µg/mL	7,325	100 µg/mL	53,613	> 100 µg/mL	1,000 μg/mL	77,277	0.04 µg/mL (≈ 0.292 µM)	0.04 µg/mL (≈ 0.292 µM)	0.04 µg/mL (≈ 0.292 µM)	1.56 µg/mL (≈ 11.4 µM)	0.04 µg/mL (≈ 0.292 µM)	3.13 µg/mL (≈ 22.8 µM)	> 100 µg/mL	showed reduced activity	–
CC[C@@H](CO)NCCN[C@@H](CC)CO [EB, ethambutol]	0.78 µg/mL (≈ 3.82 µM)	250 µg/mL	111	500 µg/mL	916	> 100 µg/mL	1,000 μg/mL	1,434	2.5 µg/mL (≈ 12.2 µM)	2.5 µg/mL (≈ 12.2 µM)	3 µg/mL (≈ 14.7 µM)	1.6 µg/mL (≈ 7.83 µM)	3 µg/mL (≈ 14.7 µM)	12.5 µg/mL (≈ 61.2 µM)	> 100 µg/mL	–	–
Dimethyldithiocarbamate [DMDC]	–	–	–	–	–	–	–	–	–	–	–	–	–	–	–	–	MIC (M. bovis): 3.13 µg/mL; MIC (Staphylococcus aureus): 25 µg/mL; MIC (M. tuberculosis H37Rv): 1.56 µg/mL; Inhibition of PTA enzyme activity (in words) [3]: did not inhibit PTA; MIC (OCT313-resistant BCG): 12.5 µg/mL; MIC (M. bovis BCG Tokyo 172 [1]): 3.13 µg/mL; Antibacterial activity in Wayne dormancy model [4]: similar; MIC (M. smegmatis mc^2 155): >100 µg/mL; MIC (Escherichia coli DH5α): 200 µg/mL
[H]/N=C(/N)N[C@H]1[C@H](O)[C@@H](O)[C@H](O[C@@H]2O[C@@H](C)[C@](O)(C=O)[C@H]2O[C@@H]2O[C@@H](CO)[C@H](O)[C@@H](O)[C@@H]2NC)[C@@H](N/C(N)=N\[H])[C@@H]1O [SM, streptomycin]	0.2 µg/mL (≈ 0.344 µM)	1,000 μg/mL	4,175	100 µg/mL	17,908	6.25 µg/mL (≈ 10.7 µM)	5,000 μg/mL	31,350	0.4 µg/mL (≈ 0.688 µM)	0.39 µg/mL (≈ 0.671 µM)	0.2 µg/mL (≈ 0.344 µM)	3.13 µg/mL (≈ 5.38 µM)	0.2 µg/mL (≈ 0.344 µM)	0.39 µg/mL (≈ 0.671 µM)	25 µg/mL (≈ 43 µM)	–	–
Cc1ncc([N+](=O)[O-])n1CCO [MTZ, metronidazole]	–	–	–	–	–	–	–	–	–	–	–	–	–	–	–	showed antibacterial activity	–
CC(=O)N[C@@H]1[C@@H](O)[C@H](O)[C@@H](CO)O[C@@H]1O [GlcNAc, N-acetyl-D-glucosamine]	–	–	–	–	–	–	–	–	–	–	–	–	–	–	–	–	MIC (M. bovis): >1,000 μg/mL; MIC (Staphylococcus aureus): >1,000 μg/mL; MIC (M. tuberculosis H37Rv): >1,000 μg/mL; Inhibition of PTA enzyme activity (in words) [3]: not sufficient to inhibit enzyme activity; MIC (OCT313-resistant BCG): >1,000 μg/mL; MIC (M. avium 104): >1,000 μg/mL; MIC (M. bovis BCG Tokyo 172 [1]): >1,000 μg/mL; MIC (M. smegmatis mc^2 155): >1,000 μg/mL; MIC (Escherichia coli DH5α): >1,000 μg/mL
CC(=O)N[C@@H]1[C@@H](O)[C@H](O)[C@@H](CO)O[C@H]1SC(=S)N(C)C [OCT313, 2-acetamido-2-deoxy-β-D-glucopyranosyl N,N-dimethyldithiocarbamate]	31.3 µg/mL (≈ 96.5 µM)	2,500 μg/mL	242	1,250 μg/mL	356	> 100 µg/mL	500 µg/mL	188	25 µg/mL (≈ 77.1 µM)	25 µg/mL (≈ 77.1 µM)	> 200 µg/mL	> 100 µg/mL	12.5 µg/mL (≈ 38.5 µM)	> 100 µg/mL	> 100 µg/mL	susceptible to OCT313 in a dose-dependent manner	Change of 50% lethal concentration (LD50) by sugar derivatization (MRC-5): 550 fold; Change of 50% lethal concentration (LD50) by sugar derivatization (THP-1): 27 fold; Change of 50% lethal concentration (LD50) by sugar derivatization (A549): 196 fold; pIC50 [3]: 5.55; Inhibition pattern (Lineweaver-Burk plots) [3]: mixed inhibition; MIC (OCT313-resistant BCG; Mycobacterium tuberculosis variant bovis BCG, BCG): > 100 µg/mL; pIC50 (L. mesenteroides PTA): < 3.00
CCN1C(=O)C=CC1=O [NEM, N-ethylmaleimide]	–	–	–	–	–	–	–	–	–	–	–	–	–	–	–	–	pIC50 [3]: 4.84; pIC50 (L. mesenteroides PTA): 4.29
